In patent US20210063414A1, “METHODS FOR PREVENTING AND/OR TREATING BONE LOSS CONDITIONS BY MODULATING IRISIN” (Dana-Farber Cancer Institute, Inc., priority 2018, published 2021):

Tested on: inguinal fat
Assay: Irisin injection in mice: Ucp1/Dio2 mRNA and Ucp1 protein in inguinal fat
Format: in vivo
Conditions: mice, co-injection with irisin
Description: FIG. 18A-FIG. 18B show mRNA and protein levels of indicated genes. 1 mg/kg irisin was injected to 8-week old mice every other day for 6 days. mRNA levels of indicated genes in inguinal fat were analyzed by qRT-PCR. Cyclophilin was used for housekeeping gene (FIG. 18A). Inguinal fats were also lysed to detect the indicated protein level using immunoblot analysis (FIG. 18B). FIGS. 18C and 18D show mRNA and protein levels of indicated genes. Mice were treated and analyzed as (A-B) with addition of coinjection of […] control RGD peptide or cyclo RGDyK (cRGDyK). mRNA levels of indicated genes in inguinal fat were analyzed by qRT-PCR. Cyclophilin was used for house-keeping gene (FIG. 18C). Inguinal fats were also lysed to detect the indicated protein level using immunoblot analysis (FIG. 18D). […] Ucp1 mRNA level was analyzed by qRT-PCR. […]
RNA was extracted from cultured cells or frozen tissues using TRIzol® (Thermo Fischer Scientific) and purified with RNeasy® mini kit (QIAGEN 74106). […] To perform qRT-PCR analysis, normalized RNA was reverse transcribed using a high-capacity cDNA reverse-transcription kit (Applied Biosystems™). cDNA was analyzed by qRT-PCR with indicated primers. Relative mRNA levels were calculated using the comparative CT method and normalized to cyclophilin mRNA. […]

Structure (SMILES): N=C(N)NCCC[C@@H]1NC(=O)[C@H](CCCCN)NC(=O)[C@@H](Cc2ccc(O)cc2)NC(=O)[C@H](CC(=O)O)NC(=O)CNC1=O [cyclo RGDyK]
- effect on irisin induction of the protein level of Ucp1: blocked
- effect on irisin-induced gene expression of Ucp1 and Dio2: blocked
